Experimental findings from patent US8871756B2 (Hoffmann-La Roche Inc., priority 2011, dated 2014) are described below.

This experiment concerns RSV Long strain. Kind of experiment: Viral cytopathic effect (CPE) assay, anti-RSV activity. The format is cell-based, Respiratory Syncytial Virus. The following applies: human respiratory syncytial virus, 144 h, RSV Long strain (ATCC); cell viability after 6 days, Cell Counting kit-8. In outline:
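EC50 was derived from CCK-8 viability at 450/630 nm measured 6 days post-infection. Infection used enough RSV Long strain for approximately 80–90% cytopathic effect, in the presence of half-log serially diluted compound. Cells were plated the day before at 6×10^3 per well in DMEM/10% FBS.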
A general note: Protection from cytopathic effect is a common read-out in antiviral testing.
For the compound `Cc1ccc2nc(N3CC[S+]([O-])c4ccccc4C3)nc(NCCN)c2c1` (stereo not drawn) [Example 89, N-[6-Methyl-2-(1-oxido-2,3-dihydro-1,4-benzothiazepin-4(5H)-yl)quinazolin-4-yl]ethane-1,2-diamine], the EC50 (usually the midpoint of the concentration-response curve) was 0.007 µM. That is a single-digit nanomolar value. Compound `NCCNc1cc(N2CCCc3cc(F)ccc3C2)nc2ccccc12` [Example 118-16, N-[2-(7-Fluoro-1,3,4,5-tetrahydro-2H-2-benzazepin-2-yl)quinolin-4-yl]ethane-1,2-diamine] displayed an EC50 of 0.695 µM.

Consider `Cc1cccc2nc(N3CCS(=O)(=O)c4ccccc4C3)cc(NCCCN)c12` [Example 17-6, N-[2-(1,1-Dioxido-2,3-dihydro-1,4-benzothiazepin-4(5 H)-yl)-5-methylquinolin-4-yl]propane-1,3-diamine], for which the EC50 amounted to 0.086 µM. With `Cc1ccc2nc(N3CCC(F)(F)c4ccccc4C3)cc(N(CCO)CCO)c2c1` [Example 110-11, 2,2′-{[2-(5,5-Difluoro-1,3,4,5-tetrahydro-2H-2-benzazepin-2-yl)-6-methylquinolin-4-yl]imino}diethanol] the figure was 6.75 µM. With `CN(C)C(=O)c1ccc2c(c1)CCCN(c1cc(NCCN)c3cc(Cl)ccc3n1)C2` [Example 123, 2-{4-[(2-Aminoethyl)amino]-6-chloroquinolin-2-yl}-N,N-dimethyl-2,3,4,5-tetrahydro-1H-2-benzazepine-7-carboxamide] the figure was 3.14 µM; with `NCCNc1cc(N2CCCc3ccc(C(=O)O)cc3C2)nc2ccccc12` [Example 118-25, 2-{4-[(2-Aminoethyl)amino]quinolin-2-yl}-2,3,4,5-tetrahydro-1H-2-benzazepine-8-carboxylic acid], 7.62 µM; with `Cc1ccc2nc(N3CC[S+]([O-])c4ccccc4C3)nc(NCC3(N)COC3)c2c1` (stereo not drawn) [Example 55-1, N-[(3-Aminooxetan-3-yl)methyl]-6-methyl-2-(1-oxido-2,3-dihydro-1,4-benzothiazepin-4(5H)-yl)quinazolin-4-amine], 0.007 µM.

`COc1ccc2c(c1)CN(c1cc(N)c3cc(C)ccc3n1)CCS2(=O)=O` [Example 20-2, 2-(7-Methoxy-1,1-dioxido-2,3-dihydro-1,4-benzothiazepin-4(5H)-yl)-6-methylquinolin-4-amine] returned an EC50 of 0.31 µM. For `COc1ccc2c(c1)CN(c1cc(NCC3(CN)COC3)c3cc(C)ccc3n1)CCS2(=O)=O` [Example 3-5, N-{[3-(Aminomethyl)oxetan-3-yl]methyl}-2-(7-methoxy-1,1-dioxido-2,3-dihydro-1,4-benzothiazepin-4(5H)-yl)-6-methylquinolin-4-amine] the value was 0.002 µM.

For the compound `Cc1ccc2nc(N3CCS(=O)(=O)c4ccccc4C3)cc(Nc3cccc(N)c3)c2c1` [Example 15-1, N-[2-(1,1-Dioxido-2,3-dihydro-1,4-benzothiazepin-4(5H)-yl)-6-methylquinolin-4-yl]benzene-1,3-diamine], the EC50 is 7.89 µM. The compound `Cc1ccc2nc(N3CCS(=O)(=O)c4ccccc4C3)cc(CC[C@@H]3COC(N)=N3)c2c1` [Example 94, (4R)-4-{2-[2-(1,1-Dioxido-2,3-dihydro-1,4-benzothiazepin-4(5H)-yl)-6-methylquinolin-4-yl]ethyl}-4,5-dihydro-1,3-oxazol-2-amine] had an EC50 of 6.53 µM. With `Cc1ccc2nc(N3CCS(=O)(=O)c4ccccc4C3)cc(NCCCCCCCCCO)c2c1` [Example 12-6, 9-{[2-(1,1-Dioxido-2,3-dihydro-1,4-benzothiazepin-4(5H)-yl)-6-methylquinolin-4-yl]amino}nonan-1-ol] the figure was 9.21 µM; with `Cc1ccc2nc(N3CCS(=O)(=O)c4ccccc4C3)cc(NC(=O)C3CCCNC3)c2c1` (stereo not drawn) [Example 3-61, N-[2-(1,1-Dioxido-2,3-dihydro-1,4-benzothiazepin-4(5H)-yl)-6-methylquinolin-4-yl]piperidine-3-carboxamide], 0.118 µM. With `NCCNc1cc(N2CCS(=O)(=O)c3ccccc3C2)nc2ccc(Cl)cc12` [Example 3-46, N-[6-Chloro-2-(1,1-dioxido-2,3-dihydro-1,4-benzothiazepin-4(5H)-yl)quinolin-4-yl]ethane-1,2-diamine] the figure was 0.053 µM. With `CCNC(=O)Nc1cc(N2CCS(=O)(=O)c3ccccc3C2)nc2ccc(C)cc12` [Example 50-2, 1-[2-(1,1-Dioxido-2,3-dihydro-1,4-benzothiazepin-4(5H)-yl)-6-methylquinolin-4-yl]-3-ethylurea] the figure was 2.42 µM; with `Cc1ccc2nc(N3CCS(=O)(=O)c4ccccc4C3)cc(NCCc3nn[nH]n3)c2c1` [Example 84, 2-(1,1-Dioxido-2,3-dihydro-1,4-benzothiazepin-4(5H)-yl)-6-methyl-N-[2-(1H-tetrazol-5-yl)ethyl]quinolin-4-amine], 2.96 µM; with `CCOc1ccc2c(c1)CN(c1cc(NCCN)c3ccccc3n1)CCC2` [Example 121, N-[2-(8-Ethoxy-1,3,4,5-tetrahydro-2H-2-benzazepin-2-yl)quinolin-4-yl]ethane-1,2-diamine], 1.1 µM. For the compound `Cc1ccc2nc(N3CCS(=O)(=O)c4ccccc4C3)cc(NC(=O)C3CNC(=O)C3)c2c1` (stereo not drawn) [Example 47-2, N-[2-(1,1-Dioxido-2,3-dihydro-1,4-benzothiazepin-4(5H)-yl)-6-methylquinolin-4-yl]-5-oxopyrrolidine-3-carboxamide], the response was half-maximal at 5.82 µM (EC50).

For the compound `Cc1ccc2nc(N3CCS(=O)(=O)c4cc(F)ccc4C3)cc(NCC3(CN)COC3)c2c1` [Example 3-1, N-{[3-(Aminomethyl)oxetan-3-yl]methyl}-2-(8-fluoro-1,1-dioxido-2,3-dihydro-1,4-benzothiazepin-4(5H)-yl)-6-methylquinolin-4-amine], the EC50 came out at 0.006 µM.

The compound `COc1ccc2c(c1)S(=O)(=O)CCN(c1cc(NCC3(N)COC3)c3ccccc3n1)C2` [Example 2-9, N-[(3-Aminooxetan-3-yl)methyl]-2-(8-methoxy-1,1-dioxido-2,3-dihydro-1,4-benzothiazepin-4(5H)-yl)quinolin-4-amine] returned an EC50 of 0.007 µM. The EC50 values of the last two compounds are within 1.5-fold of each other.

In turn, `COc1ccc2c(c1)S(=O)(=O)CCN(c1cc(NCCO)c3ccccc3n1)C2` [Example 9-2, 2-{[2-(8-M ethoxy-1,1-dioxido-2,3-dihydro-1,4-benzothiazepin-4(5 H)-yl)quinolin-4-yl]amino}ethanol] gave an EC50 of 4.77 µM. With `Cc1ccc2nc(N3CCC(F)(F)c4ccccc4C3)cc(NC3CCNC3)c2c1` (stereo not drawn) [Example 110-10] the figure was 0.099 µM. With `Cc1ccc2nc(N3CCS(=O)(=O)c4ccccc4C3)cc(N3C[C@@H]4[C@@H](N)[C@@H]4C3)c2c1` [Example 19-2, (1R,5S,6S)-3-[2-(1,1-Dioxido-2,3-dihydro-1,4-benzothiazepin-4(5H)-yl)-6-methylquinolin-4-yl]-3-azabicyclo[3.1.0]hexan-6-amine] the figure was 0.011 µM; with `Cc1ccc2nc(N3CC[S+]([O-])c4ccccc4C3)nc(N3C[C@@H](N)[C@H](F)C3)c2c1` (relative stereo) [Example 62-7, trans-4-Fluoro-1-[6-methyl-2-(1-oxido-2,3-dihydro-1,4-benzothiazepin-4(5H)-yl)quinazolin-4-yl]pyrrolidin-3-amine], 0.186 µM; with `Cc1ccc2nc(N3CCSc4ccccc4C3)cc(N3CCC(N)C3)c2c1` (stereo not drawn) [Example 4-4, 1-[2-(2,3-Dihydro-1,4-benzothiazepin-4(5H)-yl)-6-methylquinolin-4-yl]pyrrolidin-3-amine], 0.208 µM.

Regarding `Cc1ccc2nc(N3CCS(=O)(=O)c4ccccc4C3)cc(C)c2c1` [Example 99, 4-(4,6-Dimethylquinolin-2-yl)-2,3,4,5-tetrahydro-1,4-benzothiazepine 1,1-dioxide], the EC50 was determined as 3 µM. Against the preceding compound, the EC50 is about 14-fold higher. For `Cc1ccc2nc(N3CCS(=O)(=O)c4ccccc4C3)cc(N3CCC(N)CC3)c2c1` [Example 9-27, 1-[2-(1,1-Dioxido-2,3-dihydro-1,4-benzothiazepin-4(5H)-yl)-6-methylquinolin-4-yl]piperidin-4-amine] the value was 0.797 µM. With `CNCCNc1cc(N2CCC(F)(F)c3ccccc3C2)nc2ccc(C)cc12` [Example 110-3, N-[2-(5,5-Difluoro-1,3,4,5-tetrahydro-2H-2-benzazepin-2-yl)-6-methylquinolin-4-yl]-N′-methylethane-1,2-diamine] the figure was 0.161 µM; with `Cc1ccc2nc(N3CCC(F)(F)c4ccccc4C3)cc(NC3CCCC(N)C3)c2c1` (stereo not drawn) [Example 111-7, N-[2-(5,5-Difluoro-1,3,4,5-tetrahydro-2H-2-benzazepin-2-yl)-6-methylquinolin-4-yl]cyclohexane-1,3-diamine], 0.873 µM.

Take `Cc1ccc2nc(N3CCS(=O)(=O)c4ccccc4C3)cc(NC(=O)c3cccnn3)c2c1` [Example 3-58, N-[2-(1,1-Dioxido-2,3-dihydro-1,4-benzothiazepin-4(5H)-yl)-6-methylquinolin-4-yl]pyridazine-3-carboxamide]: the EC50 was found to be 0.184 µM.

For `NC1(CNc2cc(N3CC[S+]([O-])c4ccccc4C3)nc3ccc(Cl)cc23)COC1` (stereo not drawn) [Example 18-4, N-[(3-Aminooxetan-3-yl)methyl]-6-chloro-2-(1-oxido-2,3-dihydro-1,4-benzothiazepin-4 (5H)-yl)quinolin-4-amine], the EC50 was 0.061 µM. With `NCC1(CNc2cc(N3CCS(=O)(=O)c4ccccc4C3)nc3ccc(F)cc23)COC1` [Example 17-8, N-{[3-(Aminomethyl)oxetan-3-yl]methyl}-2-(1,1-dioxido-2,3-dihydro-1,4-benzothiazepin-4(5H)-yl)-6-fluoroquinolin-4-amine] the figure was 0.021 µM.

Consider `CCN(CCNc1cc(N2CCS(=O)(=O)c3ccccc3C2)nc2ccc(C)cc12)C1COC1` [Example 44-2, N′-[2-(1,1-Dioxido-2,3-dihydro-1,4-benzothiazepin-4(5H)-yl)-6-methylquinolin-4-yl]-N-ethyl-N-(oxetan-3-yl)ethane-1,2-diamine], for which the EC50 worked out at 1.55 µM.
